± gives the uncertainty stated by the source.
Key:
[1] = test system: cysteine peptide Ac-RFAACAA-COOH; test: efficacy of cysteine peptide change (negative = depletion) (% activity); higher = less depletion; conditions: incubation time: 24 h
[2] = test system: KeratinoSens (HaCaT ARE-luciferase) cells; test: cytotoxicity AC50 (CellTiter-Fluor viability); higher = less cytotoxic; conditions: exposure time: 24 h
[3] = test system: lysine peptide Ac-RFAAKAA-COOH; test: efficacy of lysine peptide change (negative = depletion) (% activity); higher = less depletion; conditions: incubation time: 24 h
[4] = test system: KeratinoSens (HaCaT ARE-luciferase) cells; test: efficacy of ARE luciferase induction relative to DMSO (% activity over DMSO); higher = stronger induction; conditions: exposure time: 24 h
THP-1 [5] = test: efficacy of IL-8 induction relative to DMSO (% activity); higher = stronger induction; conditions: exposure time: 18 h
[6] = test system: cysteine peptide Ac-RFAACAA-COOH; test: AC50 of cysteine peptide concentration-response (direction given by sign of efficacy); higher = less potent; conditions: incubation time: 24 h
[7] = test system: KeratinoSens (HaCaT ARE-luciferase) cells; test: AC50 of Nrf2/ARE luciferase induction; higher = less potent; conditions: exposure time: 24 h
THP-1 [8] = test: AC50 of IL-8 secretion induction; higher = less potent; conditions: exposure time: 18 h

CC(C)CC(C)Nc1ccc(Nc2ccccc2)cc1 (stereo not drawn) [N-(1,3-Dimethylbutyl)-N'-phenyl-p-phenylenediamine]
efficacy of cysteine peptide change [1]: -77.3 ± 10
cytotoxicity AC50 [2]: 38.5 ± 5.3 µM
efficacy of lysine peptide change [3]: 2.97 ± 5.1
efficacy of ARE luciferase induction [4]: 148 ± 100
efficacy of IL-8 induction (THP-1 [5]): 29.6 ± 1.7
AC50 [6]: 0.88 ± 0.99 µM
AC50 of Nrf2/ARE luciferase induction [7]: 26.4 µM
AC50 of IL-8 secretion induction (THP-1 [8]): 32.9 µM

Source: the supplement of paper PMC10933113
